Key:
RXR-VDR heterodimer = target: T1, RXR-VDR heterodimer (Homo sapiens, UniProt P11473); assay: RXR-VDR heterodimerization (SaOS-2 cells) test; assay type: cell-based; conditions: Gal-4-RXR-DEF / VP16-VDR-LBD, luciferase reporter
T1 construct: add the Reporter gene pFR-LUC; and add the Gal-4-RXR-DEF and VP16-VDR-LBD; expressed in transfected cells; host or cells: SaOS-2 cells
T1 sequence (P11473 127-423 limits assumed): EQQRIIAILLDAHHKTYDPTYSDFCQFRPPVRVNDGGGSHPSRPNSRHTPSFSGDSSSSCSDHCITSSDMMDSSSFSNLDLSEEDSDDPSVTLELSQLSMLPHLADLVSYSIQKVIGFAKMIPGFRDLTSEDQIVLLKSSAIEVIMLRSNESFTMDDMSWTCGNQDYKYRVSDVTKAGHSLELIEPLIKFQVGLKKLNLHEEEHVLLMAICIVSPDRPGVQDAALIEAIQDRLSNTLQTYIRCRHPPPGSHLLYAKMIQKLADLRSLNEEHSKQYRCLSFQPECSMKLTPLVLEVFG
T1 sequence (P19793 201-462 partner limits assumed): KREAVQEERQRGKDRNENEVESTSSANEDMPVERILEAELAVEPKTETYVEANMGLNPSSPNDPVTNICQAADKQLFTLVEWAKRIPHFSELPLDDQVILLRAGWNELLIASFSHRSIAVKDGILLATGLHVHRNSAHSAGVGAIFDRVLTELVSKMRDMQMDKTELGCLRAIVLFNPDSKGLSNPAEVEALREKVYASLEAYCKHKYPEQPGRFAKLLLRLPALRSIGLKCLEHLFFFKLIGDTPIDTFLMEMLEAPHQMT
Protocol: 2. The RXR-VDR heterodimerization (SaOS-2 cells) test is described in the “Assay” section of the Description, infra.
1. The RXR-VDR Heterodimer Assay:
This assay provides the VDR activity of a test compound. It is desirable to have low EC50 values for a compound in this assay. […] Desired assay results are EC50 values less than or equal to 600 nM. Preferred assay results are less than 250 nM, and most preferably less than 150 nM.
(1) Materials and Method for RXR-VDR Heterodimerization Assay Transfection
• Method: Reagents: FuGENE 6 Transfection Reagent (Roche Cat #1 814 443); Growth Media: D-MEM High Glucose (Gibco BRL Cat #11054-020), 10% heat inactivated FBS, (Gibco BRL Cat#10092-147) 1% antibiotic-antimycotic (Ab-Am); (Gibco BRL Cat #15240-062). • Cells: Grow SaOS-2 cells in T-150 cm^2 culture flasks in growth media keeping the density at 5-6×10^5 cells/ml. Passage cells 1:3 twice a week. Add Trypsin EDTA (Gibco BRL Cat #25300-020) and incubate. Resuspend cells in plating media and transfer into growth media. • Wash Media: HBSS Low Glucose Without Phenol Red (Gibco BRL Cat #14175-095), 1% Ab-Am. Plating Media: D-MEM Low Glucose Without Phenol Red (Gibco BRL Cat #11054-020), 1% Ab-Am; D-MEM; 10% Stripped FBS (Hyclone Cat#SH30068.03 Lot #AHM9371); • Transfection/Treatment Media: D-MEM Low Glucose Without Phenol Red only; T-150 cm^2 culture flask: Use Corning Coastar T-150 cm^2 culture flask (Cat #430825) to grow the cells. • Luciferase Assay Reagent: Use Steady-Glo Luciferase Reagent from Promega (Cat #E2550) Consists of: E2533 Assay Substrate, lyophilized product and E2543 Assay Buffer. Thaw at room temperature and store. • Cell Harvesting/Count: Aspirate media from culture flask, rinse cells with HBSS and aspirate. Add trypsin and incubate. When cells appear detached, resuspend cells in growth media. Transfer into a new flask with fresh growth media for passaging the cells. Plate 96 well plates and two extra plates. Mix the cell suspension using pipette. To count the cells using a Hematocytometer. • Plate seeding: Use plating media 10% Stripped FBS in D-MEM Low Glucose, without Phenol Red, 1% Ab-Am. Plate 14 plates @ 165 μl/well. In sterile flask add cell suspension to plating media and mix. Add cells/well. Place the cells in the incubator. Cells should be about 75% confluent prior to transfection. DAY 2: Transfection: Step 1, DNA and Media: Add plain DMEM media to tubes for mixing the DNA; add the Reporter gene pFR-LUC; and add the Gal-4-RXR-DEF and VP16-VDR-LBD. Step 2, FuGENE and Media: Prepare plain DMEM media in a tubes for mixing FuGENE, add FuGENE 6 Transfection Reagent, and incubate. Step 3, FuGENE, DNA and Media Complex: Add FuGENE Media complex from step 2 to DNA Media complex from step 1 and incubate. Step 4, FuGENE, DNA and Media Complex to 96 well plate: Add FuGENE-DNA-Media complex from step 3 to each plate. Incubate. • Day 3: Dosing: Treatment preparation. Allow for transfection time. Make a stock solution of the compounds in DMSO and vortex until all the compounds have been dissolved. Further dilute in D-MEM (Low Glucose—without Phenol Red) Add compounds in quadruplicate to give desired final volume then incubate. • Day 4: Luciferase Assay: Read the plates after drug treatment. Remove part of media from all the wells and leave remainder. Add Steady-Glo Luciferase Reagent mixture/wells and incubate. Count each well using a Luminescence counter, Top Count NXT by Packard preferably set a delay between plates to reduce the background.

[1] = system: IL-10 production in PBMCs; assay: IL-10 induction assay; assay type: cell-based; conditions: PBMC; TPA/PHA stimulated human PBMCs, IL-10 in supernatant by immunoassay
Excerpt: 7. The IL-10 induction assay is described in the “Assay” section of the Description, infra.
The IL-10 Induction Assay
This is an in vitro efficacy assay for psoriasis, abscess and adhesion. Psoriasis involves both keratinocytes and immune cells. IL-10 is a unique cytokine because it is anti-inflammatory and immunosuppressive. This assay tells us whether a VDRM is able to function as an agonist in PBMCs (primary blood mononuclear cells) or not. A lower EC50 value is desirable in this assay since a compound with a lower EC50 value will be a better agonist in PBMCs. An acceptable test result is an EC50 value of less than 200 nM. Preferred assay results are EC50 values of less than 100 nM.
Isolation of Peripheral Blood Mononuclear Cells (PBMCs):
Collect 50 ml of human blood and dilute with media, RPMI-1640. Add diluted blood to sterile tubes with ficol. Centrifuge the tubes. Discard the top layer and collect the cells from middle layer. Divide all cells into four tubes and add media. Centrifuge. Aspirate off media and resuspend the cells. Collect all cells. Centrifuge at 1200 rpm for 10 m. Resuspend the cells in RPMI-1640 with 2% FBS and then count cells.
Stimulation of PBMC: Prepare TPA in DMSO. Dissolve PHA in water. Plate TPA/PHA treated PBMCs in well plates. Incubate the cells.
Treatment: Prepare all compound dilutions in plain RPMI-1640 media. Add diluted compound and incubate. Sample Collection and assay: Remove all the cells by centrifugation and assay the supernatant for IL-10 by immunoassay using anti-human IL-10 antibody coated beads, as described by the manufacturer (Linco Research Inc., St. Charles, Mo.).

| SMILES | EC50 (RXR-VDR heterodimer) [µM] | IC50 [1] [µM] |
| --- | --- | --- |
| CCC(CC)(c1ccc(OCC(=O)C(C)(C)C)c(C)c1)c1ccc2cc(C(=O)N(C)C)ccc2c1 [Ex. 4, 6-{1-[4-(3,3-dimethyl-2-oxobutoxy)-3-methylphenyl]-1-ethylpropyl}naphthalene-2-carboxylic acid dimethylamide] | 0.105 |  |
| CCC(CC)(c1ccc(OCC(=O)C(C)(C)C)c(C)c1)c1ccc2cc(C(=O)O)ccc2c1 [Ex. 1, 6-{1-[4-(3,3-dimethyl-2-oxobutoxy)-3-methylphenyl]-1-ethylpropyl}naphthalene-2-carboxylic acid] | 0.04 | 0.076 |
| CCC(CC)(c1ccc(OCC(=O)C(C)(C)C)c(C)c1)c1ccc2cc(C(=O)N(C)CC(=O)O)ccc2c1 [Ex. 5, [(6-{1-[4-(3,3-Dimethyl-2-oxobutoxy)-3-methylphenyl]-1-ethylpropyl}naphthalene-2-carbonyl)methylamino]acetic acid] | 0.001 | 0.005 |
| CCC(CC)(c1ccc(OCC(O)C(C)(C)C)c(C)c1)c1ccc2cc(C(=O)O)ccc2c1 (single isomer, unassigned) [Ex. 2A, 6-{1-Ethyl-1-[4-(2-hydroxy-3,3-dimethyl-butoxy)-3-methyl-phenyl]-propyl}-naphthalene-2-carboxylic acid] | 0.0302 |  |
| CCC(CC)(c1ccc(OCC(=O)C(C)(C)C)c(C)c1)c1ccc2cc(C(=O)NCC(=O)O)ccc2c1 [Ex. 3, [(6-{1-[4-(3,3-Dimethyl-2-oxo-butoxy)-3-methylphenyl]-1-ethylpropyl}naphthalene-2-carbonyl)amino]acetic acid] | 0.0004 |  |
